Laboratory results from patent US20240391877A1, “COMPOUND AS INHIBITOR OF COMPLEMENT FACTOR D, AND PHARMACEUTICAL COMPOSITION AND USE THEREOF” (WUHAN CREATERNA SCIENCE AND TECHNOLOGY CO.,LTD., priority 2021, published 2024).

Tests used:
[1] = tested on: hemolysis of rabbit erythrocytes; test: Rabbit erythrocyte hemolysis assay to evaluate inhibitory activity on the bypass pathway; format: cell-based; conditions: Oryctolagus cuniculus, 0.5 h, 48% NHP or 26.4% NHS, 37° C. 30 min, absorbance 415 nm
Description: 2. Rabbit Erythrocyte Hemolysis Assay to Evaluate the Inhibitory Activity of Compounds on the Bypass Pathway
Normal Human Serum, NHS (collected from healthy people), Normal Human Plasma, NHP (Shanghai Yuduo), 96-well ELISA plate (Jet Biofil), Japanese big-eared white rabbit (Wuhan WQJX), Alsever's solution (Procell), centrifuge (Thermo, PICO17), thermostatic shaker (Shanghai Fuma), destaining shaker (Beijing Liuyi), cell counter (Invitrogen, Counter Countess II) (GVB^o, EGTA, MgCl2, NaOH, microplate reader, microplate thermostatic shaker, and pipette are equivalent to those in the experiment 1).
48% NHP: 100% NHP was diluted to 48% with buffer;
26.4% NPS: 100% NHS was diluted to 26.4% with buffer;
rabbit erythrocyte suspension: blood was taken from rabbit ear marginal vein, anticoagulated with Alsever's solution at a ratio of 1:1, stored in portions at 4° C., and could be stored for 4 weeks. Before use, the suspension was centrifuged at 500 g for 5 min to discard the Alsever's solution, washed three times with an equal volume of buffer and centrifuged at 500 g for 5 min, and finally the density was adjusted to 6×10^8 cells/mL with buffer.
In the 96-well ELISA plate, the experimental group was added with 50 μL of 48% NHP or 26.4% NHS and 50 μL of compound solution; the positive control group was added with 50 μL of 48% NHP or 26.4% NHS and 50 μL of buffer containing 0.2% DMSO; the blank control group was added with 50 μL of 48% inactivated NHP or 26.4% inactivated NHS and 0.2% DMSO buffer; the H2O group was added with 100 μL of double-distilled water; incubated at 37° C. for 15 min; 20 μL of rabbit erythrocyte suspension was added to each well and incubated on a shaker at 37° C. for 30 min; centrifuged at 2000 g (3380 rpm) for 5 min, and […] of supernatant was transferred to a new 96-well ELISA plate, and the absorbance was detected at 415 nm.
The PC group represents 100% hemolysis, and the NC group represents 0% hemolysis.
IC50: half-maximal inhibitory concentration. Data were collected to calculate the log value of hemolysis percentage versus compound concentration, and IC50 values were calculated using GraphPad Prism software.

complement factor D = biological target: T1, complement factor D (Homo sapiens, UniProt P00746); test: Complement factor D inhibitory activity (C3b method) in vitro screening; product Bb detected by ELISA; format: biochemical; conditions: factor D + factor B + factor C3b, 37° C., Bb by MicroVue Bb Plus ELISA
T1 construct: purchased Complement tech
Description: 1. Complement Factor D Inhibitory Activity (C3b Method) In Vitro Screening Experiment
V-bottom plate (AXYGEN), DMSO (Sigma), MicroVue Bb Plus ELISA kit (Quidel), complement factor C3b (abbreviated as factor C3b, Complement tech), complement factor B (abbreviated as factor B, Complement tech), complement factor D (abbreviated as factor D, Complement tech), EDTA (MACKLIN), GVB^o (Complement tech), EGTA (Aladdin), MgCl2 (Aladdin), NaOH (Sinopharm), microplate reader (Molecular Devices, SpectraMax i3x), microplate thermostatic shaker (Thermo, MB100-2A), pipette (Gilson)
0.1 M Mg-EGTA: 3.8 g of EGTA, 0.9521 g of MgCl2, and 0.7 g of NaOH were weighed, and the pH was adjusted to 7.5 with NaOH. Distilled water was added to make up to 100 mL, and the mixture was filtered with a […] sterile needle filter, stored in portions at 4° C.
Buffer: 0.1 M Mg-EGTA solution was diluted 10-fold to 10 mM with GVB^o buffer; • factor B working solution: 1 mg/mL factor B solution (10.75 μM) was diluted 6.7-fold to 1.6 μM with buffer; • factor C3b working solution: 1 mg/mL factor C3b solution (5.68 μM) was diluted 5-fold to […] with buffer; • factor D working solution: 0.1 mg/mL factor D solution (4.17 μM) was diluted 1303-fold to 3.2 nM with buffer.
Note: a. The above dilution multiples are for reference only and are adjusted according to the true concentration labeled on the reagent; • b. factor B: 93 KDa, factor D: 24 KDa, factor C3b: 176 KDa.
Stop solution: An appropriate amount of EDTA powder was weighed, dissolved in a certain amount of GVB^o buffer, and the pH was adjusted to 7.5 with NaOH. The mixture was stirred until clear and prepared into a 10 mM solution.
Compound stock solution: 40 mM compound solution was diluted with DMSO into 1 mM stock solution, and the 1 mM stock solution was diluted 3-fold with DMSO at 8 points to prepare compound stock solutions of various concentrations.
Compound working solution: diluted 250-fold with buffer to obtain compound solutions of various concentrations.
In the V-bottom plate, the experimental group was added with 10 μL of factor D solution and 10 μL of compound solution; the positive control group was added with 10 μL of factor D solution and buffer containing 0.4% DMSO; the blank control group was added with […] containing 0.2% DMSO; incubated at 37° C. for 15 min; the factor B working solution and the factor C3b working solution were mixed homogeneously at a ratio of 1:1; 20 µL of the mixture was added to each well and incubated at 37° C. for 30 min; the reaction was stopped by adding 40 μL of stop solution; the production of product Bb was detected by MicroVue Bb Plus ELISA kit.
1.4.1 The required wells of the ELISA plate were taken out and allowed to return to room temperature, and the remaining ones were repackaged and stored at 4° C.;
1.4.2 the wells were washed twice with 300 μL of 1× wash buffer, and incubated for 1 min at 25° C. for the first wash;
1.4.3 samples were diluted 8-fold with complement specimen diluent, and 100 μL of sample was added to each well and incubated at 25° C. for 30 min;
1.4.4 the liquid in the wells was discarded, and the wells were washed 5 times with 300 μL of 1× wash buffer, and incubated at room temperature for 1 min for the first wash;
1.4.5 50 μL of Bb Plus Conjugate was added to each well and incubated at 25° C. for 30 min;
1.4.6 the liquid in the wells was discarded, and the wells were washed 5 times with 300 μL of 1× wash buffer, and incubated at room temperature for 1 min for the first wash;
1.4.7 100 μL of […] (Substrate Solution) was added to each well and incubated at 25° C. for 15 min;
1.4.8 100 μL of stop solution was added to each well, and the absorbance was detected at 450 nm within 30 min.
1.5.1 Inhibition rate of each drug concentration:
The PC group represents 0% inhibition rate, and the NC group represents 100% inhibition rate. […]

T1 sequence (P00746 26-253): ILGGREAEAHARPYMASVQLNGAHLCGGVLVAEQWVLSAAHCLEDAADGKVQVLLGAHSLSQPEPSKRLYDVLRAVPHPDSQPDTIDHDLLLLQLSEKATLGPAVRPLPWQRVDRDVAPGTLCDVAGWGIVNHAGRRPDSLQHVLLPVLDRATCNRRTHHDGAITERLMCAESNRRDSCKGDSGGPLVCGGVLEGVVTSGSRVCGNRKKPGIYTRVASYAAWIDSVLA

SMILES	IC50 (complement factor D)	IC50 [1]
NCc1cccc(-c2cc(COc3ccc(F)cc3CC(=O)O)cc(N3CCC4(CC3)COC4)c2)c1F [Compound 025, 2-(2-((3′-(aminomethyl)-2′-fluoro-5-(2-oxa-7-azaspiro[3.5]nonan-7-yl)-[1,1′-biphenyl]-3-yl)methoxy)-5-fluorophenyl)acetic acid]	7 nM	12 nM
NCc1cccc(-c2cc(COc3ccccc3CC(=O)O)cc(N3CC4(CCCC4)C3)c2)c1 [Compound 017, 2-(2-((3′-(aminomethyl)-5-(2-azaspiro[3.4]octan-2-yl)-[1,1′-biphenyl]-3-yl)methoxy)phenyl)acetic acid]	6 nM	65 nM
NCc1cccc(-c2cc(COc3ccccc3CC(=O)O)cc(N3CCC4(CCOCC4)CC3)c2)c1 [Compound 029, 2-(2-((3′-(aminomethyl)-5-(3-oxa-9-azaspiro[5.5]undecan-9-yl)-[1,1′-biphenyl]-3-yl)methoxy)phenyl)acetic acid]	6 nM	10 nM
NCc1cccc(-c2cc(COc3ccccc3CC(=O)O)cc(N3CCC4(CCC4)C3)c2)c1 [Compound 003, 2-(2-((3′-(aminomethyl)-5-(6-azaspiro[3.4]octan-6-yl)-[1,1′-biphenyl]-3-yl)methoxy)phenyl)acetic acid]	3 nM	43 nM
CN1CC2(CCN(c3cc(COc4ccccc4CC(=O)O)cc(-c4cccc(CN)c4)c3)CC2)C1 [Compound 032, 2-(2-((3′-(aminomethyl)-5-(2-methyl-2,7-diazaspiro[3.5]nonan-7-yl)-[1,1′-biphenyl]-3-yl)methoxy)phenyl)acetic acid]	10 nM	8 nM
NCc1cccc(-c2cc(COc3ccccc3CC(=O)O)cc(N3CCC4(CC3)COC4)c2)c1F [Compound 024, 2-(2-((3′-(aminomethyl)-2′-fluoro-5-(2-oxa-7-azaspiro[3.5]nonan-7-yl)-[1,1′-biphenyl]-3-yl)methoxy)phenyl)acetic acid]	4 nM	27 nM
NCc1cccc(-c2cc(COc3ccccc3CC(=O)O)cc(N3CCOC4(CC4)C3)c2)c1 [Compound 016, 2-(2-((3′-(aminomethyl)-5-(4-oxa-7-azaspiro[2.5]octan-7-yl)-[1,1′-biphenyl]-3-yl)methoxy)phenyl)acetic acid]	26 nM	19 nM
NCc1cccc(-c2cc(COc3ccccc3CC(=O)O)cc(N3CC4CCC(C4)C3)c2)c1 [Compound 006, 2-(2-((3′-(aminomethyl)-5-(3-azabicyclo[3.2.1]octan-3-yl)-′[1,1′-biphenyl]-3-yl)methoxy)phenyl)acetic acid]	4 nM	54 nM
NCc1cccc(-c2cc(COc3ccccc3CC(=O)O)cc(N3CCCC4(CC4)C3)c2)c1 [Compound 004, 2-(2-((3′-(aminomethyl)-5-(5-azaspiro[2.5]octan-5-yl)-[1,1′-biphenyl]-3-yl)methoxy)phenyl)acetic acid]	19 nM	36 nM
NCc1cccc(-c2cc(COc3ccccc3CC(=O)O)cc(N3CCC4(CCCC4)C3)c2)c1 [Compound 034]	1 nM	11 nM

Continued by falling IC50 (complement factor D), values first:

IC50 (complement factor D)	SMILES	IC50 [1]
18 nM	NCc1cccc(-c2cc(COc3ccccc3CC(=O)O)cc(N3CCC4(CC3)COC4)c2)c1 [Compound 011, 2-(2-((3′-(aminomethyl)-5-(2-oxa-7-azaspiro[3.5]nonan-7-yl)-[1,1′-biphenyl]-3-yl)methoxy)phenyl)acetic acid]	13 nM
18 nM	NCc1cc(F)cc(-c2cc(COc3ccccc3CC(=O)O)cc(N3CCC4(CC3)CC4)c2)c1 [Compound 008, 2-(2-((3′-(aminomethyl)-5′-fluoro-5-(6-azaspiro[2.5]octan-6-yl)-[1,1′-biphenyl]-3-yl)methoxy)phenyl)acetic acid]	196 nM
14 nM	NCc1cccc(-c2cc(COc3ccccc3CC(=O)O)cc(N3CCC4(CCOC4)CC3)c2)c1 [Compound 014, 2-(2-((3′-(aminomethyl)-5-(2-oxa-8-azaspiro[4.5]decan-8-yl)-[1,1′-biphenyl]-3-yl)methoxy)phenyl)acetic acid]	10 nM
11 nM	NCc1cccc(-c2cc(COc3ccccc3CC(=O)O)cc(N3CCC4(CC3)CC(O)C4)c2)c1 [Compound 013, 2-(2-((3′-(aminomethyl)-5-(2-hydroxy-7-azaspiro[3.5]nonan-7-yl)-[1,1′-biphenyl]-3-yl)methoxy)phenyl)acetic acid]	28 nM
6 nM	NCc1cccc(-c2cc(COc3ccccc3CC(=O)O)cc(N3CCC4(CCO4)CC3)c2)c1 [Compound 012, 2-(2-((3′-(aminomethyl)-5-(1-oxa-7-azaspiro[3.5]nonan-7-yl)-[1,1′-biphenyl]-3-yl)methoxy)phenyl)acetic acid]	4 nM
3 nM	NCc1cccc(-c2cc(COc3ccccc3CC(=O)O)cc(N3CC4(CCOC4)C3)c2)c1 [Compound 031, 2-(2-((3′-(aminomethyl)-5-(6-oxa-2-azaspiro[3.4]octan-2-yl)-[1,1′-biphenyl]-3-yl)methoxy)phenyl)acetic acid]	6 nM
2 nM	NCc1cccc(-c2cc(COc3ccccc3CC(=O)O)cc(N3CCC4(CCNCC4)CC3)c2)c1 [Compound 033, 2-(2-((3′-(aminomethyl)-5-(3,9-diazaspiro[5.5]undecan-3-yl)-[1,1′-biphenyl]-3-yl)methoxy)phenyl)acetic acid]	3 nM
